“Also recorded” adds a separate entry of the source.
What was measured:
[1] = molecular target: CYP2C9 (Homo sapiens, UniProt P11712); test: CYP2C9 inhibition by XueBiJing compounds, cDNA-expressed enzyme [MFC→HFC]; assay type: in vitro ADME
[2] = system: P450 enzymes, UGTs, SULTs, OATP1B1/1B3, OAT1/3, OCT2, MATE1/2-K, MDR1, BCRP; conditions: cited from earlier work
[3] = molecular target: T1, UGT2B15 (Homo sapiens, UniProt P54855); test: UGT2B15 inhibition by XueBiJing compounds, cDNA-expressed enzyme [SENI→S7G]; assay type: in vitro ADME
T1 sequence (P54855 24-530): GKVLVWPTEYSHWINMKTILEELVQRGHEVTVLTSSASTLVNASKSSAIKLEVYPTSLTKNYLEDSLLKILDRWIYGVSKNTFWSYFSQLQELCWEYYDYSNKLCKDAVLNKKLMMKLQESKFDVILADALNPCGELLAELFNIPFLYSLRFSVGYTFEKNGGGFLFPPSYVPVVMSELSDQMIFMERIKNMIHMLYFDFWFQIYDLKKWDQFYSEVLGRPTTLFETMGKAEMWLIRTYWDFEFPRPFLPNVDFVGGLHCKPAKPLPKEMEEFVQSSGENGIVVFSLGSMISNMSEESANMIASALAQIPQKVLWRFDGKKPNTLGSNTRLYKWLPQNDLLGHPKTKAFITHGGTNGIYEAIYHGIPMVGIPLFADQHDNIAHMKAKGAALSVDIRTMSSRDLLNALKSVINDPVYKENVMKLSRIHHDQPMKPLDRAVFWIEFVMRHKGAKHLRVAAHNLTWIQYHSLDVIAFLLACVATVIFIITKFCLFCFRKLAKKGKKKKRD

[4] = molecular target: T2, OATP1B3 (Homo sapiens, UniProt Q9NPD5)
T2 sequence (Q9NPD5 1-702): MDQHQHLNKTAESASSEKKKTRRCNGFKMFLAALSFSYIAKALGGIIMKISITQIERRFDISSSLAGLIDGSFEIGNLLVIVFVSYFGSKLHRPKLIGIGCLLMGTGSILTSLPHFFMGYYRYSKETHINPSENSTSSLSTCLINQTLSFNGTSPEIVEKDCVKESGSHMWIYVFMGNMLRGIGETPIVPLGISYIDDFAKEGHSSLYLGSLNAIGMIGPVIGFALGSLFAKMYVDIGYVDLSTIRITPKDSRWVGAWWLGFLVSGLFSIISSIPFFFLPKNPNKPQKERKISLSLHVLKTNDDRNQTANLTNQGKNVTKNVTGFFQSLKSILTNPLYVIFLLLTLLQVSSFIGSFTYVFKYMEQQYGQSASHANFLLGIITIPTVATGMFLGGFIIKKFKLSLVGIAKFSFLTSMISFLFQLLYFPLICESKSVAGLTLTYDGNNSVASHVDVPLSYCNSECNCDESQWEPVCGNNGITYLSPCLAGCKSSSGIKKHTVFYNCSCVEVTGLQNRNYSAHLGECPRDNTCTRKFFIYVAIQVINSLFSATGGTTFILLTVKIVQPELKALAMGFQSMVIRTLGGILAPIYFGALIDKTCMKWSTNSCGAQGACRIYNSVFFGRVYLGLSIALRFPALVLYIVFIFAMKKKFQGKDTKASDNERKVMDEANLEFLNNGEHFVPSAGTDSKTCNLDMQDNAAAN

[5] = molecular target: T3, UGT1A6 (Homo sapiens, UniProt P19224); test: UGT1A6 inhibition by XueBiJing compounds, cDNA-expressed enzyme [4-MU→4-MUG]; assay type: in vitro ADME
T3 sequence (P19224 27-532): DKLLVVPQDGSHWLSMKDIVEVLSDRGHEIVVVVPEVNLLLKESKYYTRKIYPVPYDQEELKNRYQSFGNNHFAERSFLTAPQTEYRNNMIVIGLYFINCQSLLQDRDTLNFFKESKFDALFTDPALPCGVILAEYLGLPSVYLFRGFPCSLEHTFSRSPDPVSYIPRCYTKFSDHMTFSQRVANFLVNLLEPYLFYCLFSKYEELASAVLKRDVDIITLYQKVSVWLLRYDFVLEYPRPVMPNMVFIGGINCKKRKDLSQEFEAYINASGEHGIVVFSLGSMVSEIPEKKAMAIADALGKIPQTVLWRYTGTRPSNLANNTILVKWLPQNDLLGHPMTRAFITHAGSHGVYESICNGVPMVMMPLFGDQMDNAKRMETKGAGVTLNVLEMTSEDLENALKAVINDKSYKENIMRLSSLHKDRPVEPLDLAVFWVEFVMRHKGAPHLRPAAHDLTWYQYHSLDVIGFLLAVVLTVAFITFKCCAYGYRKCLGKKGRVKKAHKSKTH

[6] = system: CYP3A4; conditions: higher concentrations; range over the named compounds and enzymes
[7] = molecular target: T2, OATP1B3; test: in vitro
[8] = system: CYP2B6; test: CYP2B6 induction by XueBiJing compounds in cryopreserved human hepatocytes; assay type: in vitro ADME; conditions: higher concentrations; range over the named compounds and enzymes
[9] = molecular target: OATP1B1 (Homo sapiens, UniProt Q9Y6L6); test: OATP1B1 inhibition by XueBiJing compounds, transfected HEK293 cells [E217βG]; assay type: in vitro ADME
Sequence of OATP1B1 (Q9Y6L6 whole entry): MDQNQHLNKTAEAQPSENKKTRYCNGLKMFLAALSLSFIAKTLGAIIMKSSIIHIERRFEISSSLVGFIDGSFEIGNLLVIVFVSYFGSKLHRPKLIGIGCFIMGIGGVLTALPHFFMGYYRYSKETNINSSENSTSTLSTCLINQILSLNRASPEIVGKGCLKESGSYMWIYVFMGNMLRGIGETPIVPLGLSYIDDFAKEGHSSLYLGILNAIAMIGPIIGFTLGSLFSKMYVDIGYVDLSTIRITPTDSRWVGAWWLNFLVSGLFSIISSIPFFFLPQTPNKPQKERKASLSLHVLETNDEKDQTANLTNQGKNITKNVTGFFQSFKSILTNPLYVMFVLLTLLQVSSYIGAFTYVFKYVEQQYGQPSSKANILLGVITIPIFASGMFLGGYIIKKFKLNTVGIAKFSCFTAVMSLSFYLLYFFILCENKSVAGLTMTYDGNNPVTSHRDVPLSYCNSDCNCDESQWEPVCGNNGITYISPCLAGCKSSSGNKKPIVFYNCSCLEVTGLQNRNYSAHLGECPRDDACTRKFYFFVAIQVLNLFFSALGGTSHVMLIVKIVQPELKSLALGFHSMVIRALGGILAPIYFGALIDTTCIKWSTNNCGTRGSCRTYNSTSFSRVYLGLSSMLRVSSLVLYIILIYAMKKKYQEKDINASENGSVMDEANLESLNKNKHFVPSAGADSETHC

[10] = molecular target: T4, UGT1A9 (Homo sapiens, UniProt O60656); test: UGT1A9 inhibition by XueBiJing compounds, cDNA-expressed enzyme [4-MU→4-MUG]; assay type: in vitro ADME
T4 sequence (O60656 26-530): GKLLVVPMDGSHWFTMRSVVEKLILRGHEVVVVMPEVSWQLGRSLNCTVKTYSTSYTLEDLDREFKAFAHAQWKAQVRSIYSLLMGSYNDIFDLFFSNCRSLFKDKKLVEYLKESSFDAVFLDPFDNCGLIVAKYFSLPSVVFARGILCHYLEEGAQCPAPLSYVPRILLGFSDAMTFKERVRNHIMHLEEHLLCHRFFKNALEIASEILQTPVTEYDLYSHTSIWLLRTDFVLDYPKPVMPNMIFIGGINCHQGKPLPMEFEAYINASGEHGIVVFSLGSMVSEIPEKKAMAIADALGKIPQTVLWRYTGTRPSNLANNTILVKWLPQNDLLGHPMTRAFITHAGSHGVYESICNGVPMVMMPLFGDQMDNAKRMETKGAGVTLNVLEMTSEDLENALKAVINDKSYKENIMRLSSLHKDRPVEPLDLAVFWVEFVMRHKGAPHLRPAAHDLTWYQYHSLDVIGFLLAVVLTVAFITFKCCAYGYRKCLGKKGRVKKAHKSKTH

[11] = molecular target: CYP2C19 (Homo sapiens, UniProt P33261); assay type: in vitro ADME
Sequence of CYP2C19 (P33261 whole entry): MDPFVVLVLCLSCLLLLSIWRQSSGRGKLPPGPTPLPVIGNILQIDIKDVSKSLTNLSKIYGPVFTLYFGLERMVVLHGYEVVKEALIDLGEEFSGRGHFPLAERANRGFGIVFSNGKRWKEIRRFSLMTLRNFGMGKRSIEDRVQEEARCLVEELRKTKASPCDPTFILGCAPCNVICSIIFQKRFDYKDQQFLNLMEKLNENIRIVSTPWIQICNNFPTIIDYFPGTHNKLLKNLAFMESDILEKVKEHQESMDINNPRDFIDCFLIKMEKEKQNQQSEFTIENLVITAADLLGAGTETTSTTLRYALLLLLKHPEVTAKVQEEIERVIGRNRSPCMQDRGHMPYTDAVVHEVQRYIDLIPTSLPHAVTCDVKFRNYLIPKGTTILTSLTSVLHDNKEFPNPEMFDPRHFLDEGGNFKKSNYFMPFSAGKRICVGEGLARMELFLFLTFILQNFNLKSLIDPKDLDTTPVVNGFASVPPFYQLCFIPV

[12] = XueBiJing compounds, cited from earlier work

Sequence of CYP2C9 (P11712 whole entry): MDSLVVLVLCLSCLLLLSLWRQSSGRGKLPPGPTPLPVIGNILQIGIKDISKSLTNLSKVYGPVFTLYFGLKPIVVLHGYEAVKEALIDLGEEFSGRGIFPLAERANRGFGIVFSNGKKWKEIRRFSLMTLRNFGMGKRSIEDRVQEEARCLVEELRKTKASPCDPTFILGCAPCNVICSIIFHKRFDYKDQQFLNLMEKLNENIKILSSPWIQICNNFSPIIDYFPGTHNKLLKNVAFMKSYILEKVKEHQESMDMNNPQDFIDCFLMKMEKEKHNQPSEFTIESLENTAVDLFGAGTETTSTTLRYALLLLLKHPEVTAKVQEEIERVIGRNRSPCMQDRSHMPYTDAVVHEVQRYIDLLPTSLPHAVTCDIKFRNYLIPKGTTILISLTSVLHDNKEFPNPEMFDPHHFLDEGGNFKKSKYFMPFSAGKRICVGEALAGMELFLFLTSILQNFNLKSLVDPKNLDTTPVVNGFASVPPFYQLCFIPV

- IC50 [1]: 75 ± 13 µM
- inhibition at 100 μmol/L ([1]; human, cDNA-expressed CYP2C9, probe MFC (75 μmol/L)): 68 to 80%
- IC50 [3]: 92 ± 25 µM
- inhibition at 100 μmol/L ([3]; human, cDNA-expressed UGT2B15): 55%
- IC50 [4]: 18 ± 4 µM
- IC50 [5]: 15 ± 1 µM
- inhibition at 100 μmol/L ([5]; human, cDNA-expressed UGT1A6, probe 4-MU (100 μmol/L), 4-MUG formed): > 90%
- mRNA-T/U ratio, CYP3A4 [6]: 4.0 to 9.6
- inhibition at 100 μmol/L [7]: > 50%
- mRNA-T/U ratio, CYP2B6 [8]: 4.0 to 9.6
- IC50 [9]: 38 ± 3 µM
- IC50 [10]: 3 ± 1 µM
- inhibition at 100 μmol/L ([10]; human, cDNA-expressed UGT1A9, probe 4-MU (10 μmol/L), 4-MUG formed): > 90%
- Time-dependent inhibition of CYP2C19 [11]: negligible
SMILES: O=C(/C=C/c1ccc(O)c2c1[C@H](C(=O)O[C@H](Cc1ccc(O)c(O)c1)C(=O)O)[C@@H](c1ccc(O)c(O)c1)O2)O[C@H](Cc1ccc(O)c(O)c1)C(=O)O [X10, salvianolic acid B]
- Related metabolism and transport data (substrate status) [2]: Highly selective OATP1B3 substrate; also recorded: COMT substrate
- pKa [12]: 2.8
- LogD(7.4) ([12]; pH 7.4): −2.8

— paper PMC6804443 (Acta Pharmaceutica Sinica. B, 2019)
